These results are taken from patent publication EP3318253B1, “COMPOSITIONS COMPRISING WNT INHIBITORS FOR TREATING CANCER” (Schmidt-Wolf, Ingo, priority 2010, dated 2012).

Like-named read-outs stand apart in the source and are kept apart here.

Data set [1] has as its system OPM-2, U266 and RPMI 8226 cells. Kind of data set: Cell viability by DiOC6 staining in myeloma cell lines (mean IC50, combinations). Type of data set: cell-based, human. The note with it: for IC50: Homo sapiens, mean of the IC50 results in OPM-2, U266 and RPMI 8226 cells; for viability of myeloma cell lines in vitro: result in words. As for the experimental part:
A mean IC50 value in myeloma cells was determined using the mean of the IC50 results determined in OPM-2, U266 and RPMI 8226 cells.
(§1) • Figure 1. […] Data are shown as mean ± SD. • Figure 2. […] Data are shown as mean ± SD. • Figure 3. […] (A) Flow cytometric results. […] Finally, ECL reagent was utilized for detection. • Figure 4C. […] Finally, ECL reagent was utilized for detection. • Figure 5. Effect of EA on viability of myeloma primary cells. […] Results represent data from two separate experiments. Data are shown as mean. • Figure 6. […] (A) Tumor growth and (B) overall survival were measured. Six animals were assayed per group.
Experiments were performed as reported recently. […]

In data set [2] the test system is MPC 11. Kind of data set: Cell viability by DiOC6 staining, flow cytometry. Format: cell-based. The note with it: Mus musculus, 72 h; MPC 11 (murine); three days. As to the method: Then cell viability was measured by DIOC6 staining in flow cytometry. […] Then cell viability was measured by DIOC6 staining in flow cytometry. Results represent data from two separate experiments. […] Six animals were used in each group. […] Six animals were used in each group.
(In general: Flow cytometry measures light scatter and fluorescence of single cells or particles in a stream.)

The test system of data set [3] is U266. Kind of data set: Cell viability by DiOC6 staining, flow cytometry. Format: cell-based. As to conditions: Homo sapiens, U-266, 72 h, 1x10^5 cells cultured three days, various concentrations. As to the method:
(§2) Experiments were performed as reported recently.
(§3) PBL derived from healthy individuals were used as controls. […] ND, not done.

Data set [4] relates to SU-DHL 4. Kind of data set: Cell viability by DiOC6 staining, flow cytometry. Type of data set: cell-based. As to conditions: Homo sapiens, 72 h; SU-DHL 4; 1x10^5 cells cultured three days, various concentrations. As for the experimental part: as §2, §3
Data set [5] concerns OCI-Ly8 LAM53. Kind of data set: Cell viability by DiOC6 staining, flow cytometry. Format: cell-based. As to conditions: Homo sapiens, 72 h; OCI-Ly8 LAM53; 1x10^5 cells cultured three days, various concentrations. As for the experimental part:
as §2, §3

Data set [6] has as its system Raji. Kind of data set: Cell viability by DiOC6 staining, flow cytometry. Type of data set: cell-based. As to conditions: Homo sapiens, 72 h, 1x10^5 cells cultured three days, various concentrations. As for the experimental part:
as §2, §3

In data set [7] the test system is RPMI 8226. Kind of data set: Cell viability by DiOC6 staining, flow cytometry. Format: cell-based. As to conditions: Homo sapiens, 72 h, 1x10^5 cells cultured three days, various concentrations. As for the experimental part:
as §2, §3

Data set [8] deals with primary myeloma cells derived from bone marrow from patients with multiple myeloma. Kind of data set: Viability of myeloma primary cells from bone marrow. Format: cell-based, human. The note with it: incubated three days; preliminary data. As to the method:
Bone marrow samples from patients with myeloma were taken after informed consent, single cell suspensions generated and cells ficolled. Cells were incubated with or without EA for three days and measured for viability.
as §1
Bone marrow samples from patients with myeloma were taken after informed consent, single cell suspensions generated and cells ficolled. Cells were incubated with or without CIC for three days and measured for viability.
Bone marrow samples from patients with myeloma were taken after informed consent, single cell suspensions generated and cells ficolled. Cells were incubated with or without GF for three days and measured for viability.

The subject of data set [9] is PBMC. Kind of data set: Cell viability by DiOC6 staining, flow cytometry (normal control cells). The note with it: for IC50: Homo sapiens, 72 h, PBMC from healthy individuals, three days; for effect on normal PBMC and PBL: result in words. Type of data set: cell-based, human. As to the method: PBMCs were isolated from blood of healthy donors by Ficoll-Hypaque density gradient centrifugation. Blood from buffy coats was mixed 1:2 with PBS/1% BSA (both PAA, Cölbe, Germany) and used for a ficoll gradient (LymphoPrep, PAA, Cölbe, Germany). After the centrifugation at 800 g for 30 minutes, the leukocyte layer was removed and transferred to new tubes. Subsequently, these cells were washed 3 times with PBS/1%BSA and re-suspended in fresh medium, consisting of RPMI medium (PAA, Cölbe, Germany) with 10% fetal calf serum (Invitrogen, Karlsruhe, Germany), 2.5% hepes buffer solution (PAA, Cölbe, Germany), and 1% penicillin/streptomycin (PAA, Cölbe, Germany).
as §2

For data set [10], the system named is lymphoma cell lines. Kind of data set: Cell viability by DiOC6 staining in lymphoma cell lines. The note with it: result in words. Type of data set: cell-based, human. As for the experimental part: as §2, §3
The test system of data set [11] is MPC11 myeloma cells. The note with it: gavage, daily dosage 450 µg per animal; for overall survival time: compared to the control group; for animals in which solid tumor nodules formed: treatment group of 6. As for the experimental part:
All animal experiments were done at least in duplicate with groups of 6 BALB/c mice (Charles River, Sulzfeld, Germany). 5x10^5 MCP11 murine myeloma cells were injected per mouse subcutaneously into Balb/c mice. […] Overall survival and tumor growth were measured. Tumor volume was calculated as follows: volume = length x width^2 x 0,52. Animals were killed when tumor volume reached 2000 mm^3.
• Figure 1. […] 1x10^5 cells were cultured with different compounds for three days. The concentration of thalidomide was U266 160µM for U266, RPMI 20µM for RPMI, and OPM 40µM for OPM cells. Then cell viability was measured by DIOC6 staining in flow cytometry. Results represent data from three, two and five separate experiments, respectively. Separate U266 n=3, RPMI n=2, OPM n=5 experiments. Data are shown as mean ± SD. • Figure 2. […] 1x10^5 OPM cells were cultured with the different compounds for three days. The concentration of lenalidomide was 12µM for OPM and 80µM for RPMI cells. Then cell viability was measured by DIOC6 staining in flow cytometry. Results represent data from eight and five OPM n=8, RPMI n=5 separate experiments, respectively. Data are shown as mean ± SD. • Figure 3. […] (A) Flow cytometric results. […] Western Blot analysis for the detection of β-catenin in myeloma cell lines under normal conditions. The myeloma cell lines RPMI 8226, KMS-18 and U266 were analyzed according to their β-catenin expression. • Figure 4B. […] As primary antibodies purified mouse anti-β-catenin and β-actin were used at a dilution of 1:1000 and as secondary antibody served goat anti-mouse IgG-HRP at a dilution of 1:5000. Finally, ECL reagent was utilized for detection. • Figure 4C. […] As primary antibodies Purified mouse anti-β-catenin and β-actin were used at a dilution of 1:1000 and as secondary antibody served goat anti-mouse IgG-HRP at a dilution of 1:5000. Finally, ECL reagent was utilized for detection. • Figure 5. […] Results represent data from two separate experiments. Data are shown as mean. • Figure 6. […] BALB/c mice were injected with 5x10^5 MPC11 myeloma cells subcutaneously. (A) Tumor growth and (B) overall survival were measured. Six animals were assayed per group.
All animal experiments were done at least in duplicate with groups of 6 BALB/c mice (Charles River, Sulzfeld, Germany). 5x10^5 MCP11 murine myeloma cells were injected per mouse subcutaneously into Balb/c mice. Mice were treated orally with 450µg/day CIC and 750 µg lenalidomide/day, respectively. Overall survival and tumor growth were measured. Tumor volume was calculated as follows: volume = length x width^2 x 0,52. Animals were killed when tumor volume reached 2000 mm^3.
• Figure 7. […] 1x10^5 cells were cultured with different compounds for three days. The concentration of thalidomide was U266 160µM for U266, RPMI 20µM for RPMI, and OPM 40µM for OPM cells. Then cell viability was measured by DIOC6 staining in flow cytometry. Results represent data from three, two and five separate experiments, respectively. Separate U266 n=3, RPMI n=2, OPM n=5 experiments. Data are shown as mean ± SD. • Figure 8. […] 1x10^5 OPM cells were cultured with the different compounds for three days. The concentration of lenalidomide was 12µM for OPM and 80µM for RPMI cells. Then cell viability was measured by DIOC6 staining in flow cytometry. Results represent data from eight and five OPM n=8, RPMI n=5 separate experiments, respectively. Data are shown as mean ± SD. • Figure 9. […] (A) Flow cytometric results. (B) We analyzed the effect of CIC on the Wnt/beta catenin pathway by Western blot. • Figure 10A. Western Blot analysis for the detection of β-catenin in myeloma cell lines under normal conditions. The myeloma cell lines RPMI 8226, KMS-18 and U266 were analyzed according to their β-catenin expression. • Figure 10B.

Data set [12] concerns PBL. Kind of data set: Cell viability by DiOC6 staining, flow cytometry (normal control cells). The note with it: for IC50: Homo sapiens, PBL, 72 h; for effect on normal PBL: result in words.
Description: (§4) Peripheral blood mononuclear cells (PBMC) and PBL were isolated from blood samples of healthy volunteers by Ficoll density gradient centrifugation (Lymphoprep, Nycomed, Oslo, Norway).
(§5) 1x10^5 Cells were cultured in 3 ml Medium in 6-well plates. […] The apoptosis assay was performed with 3'3-dihexyloxacarbocyanine iodide (DiOC6) detecting mitochondrial membrane potential in viable cells, and propidium iodide (PI) which binds to DNA in necrotic cells, measured by a fluorescence-activated cell sorter (FACS).
(§6) For FACS analysis, 500µl staining solution containing 80 nM DiOC6 in FACS buffer, consisting of deficient RPMI-medium with 0.5% bovine serum albumin (BSA), was mixed with equal volumes of the cell sample in a glass tube and incubated at 37°C for 15 min. After a washing step with PBS/BSA 1% the cells were re-suspended in 500µl PBS/BSA 1%. After addition of 5µl PI-solution (100µg/ml) the cells were analyzed by FACS. Using this assay, viable cells reveal high fluorescence intensity for DiOC6 and a low expression for PI. In contrary, apoptotic cells show a low expression for DiOC6 and also a low expression for PI (2). Finally, necrotic cells show a low expression for DiOC6 and a high expression for PI.
(§7) PBMC and PBL derived from healthy individuals were used as normal controls. 1x10^5 cells were cultured with each compound using various concentrations for three days. Then cell viability was measured by DIOC6 staining by flow cytometry. Results represent data from two to four separate experiments each.
(§8) PBMC and PBL derived from healthy individuals were used as normal controls. 1x10^5 cells were cultured with each compound using various concentrations for three days. Then cell viability was measured by DIOC6 staining by flow cytometry. Results represent data from 2 to 4 separate experiments each.
(§9) 1x10^5 Cells were cultured in 3 ml Medium in 6-well plates. […] The apoptosis assay was performed with 3' 3-dihexyloxacarbocyanine iodide (DiOC6) detecting mitochondrial membrane potential in viable cells, and propidium iodide (PI) which binds to DNA in necrotic cells, measured by a fluorescence-activated cell sorter (FACS).
(§10) PBL derived from healthy individuals were used as controls. 1x10^5 cells were cultured with each compound using various concentrations for three days. Then cell viability was measured by DIOC6 staining by flow cytometry and IC 50 rates were determined. Results represent data from 2 to 4 separate experiments each.
(§11) PBMC and PBL derived from healthy individuals were used as controls. 1x10^5 cells were cultured with each compound using various concentrations for three days.
In data set [13] the test system is KMS18. Kind of data set: Cell viability by DiOC6 staining, flow cytometry. Format: cell-based. As to conditions: Homo sapiens, 72 h, three days.
From the text: as §3

The subject of data set [14] is OPM-2 myeloma cells. Kind of data set: Cell viability by DiOC6 staining, flow cytometry. Format: cell-based, human. The note with it: for IC50: Homo sapiens, 72 h, OPM-2, 1x10^5 cells cultured three days, various concentrations. As for the experimental part:
as §2, §3

In data set [15] the test system is PBL.
Description: as §4, §5, §6, §7, §8, §9, §10, §11
Data set [16] deals with Daudi and Raji cells. Kind of data set: Cell viability in combination experiments, lymphoma cells. Type of data set: cell-based, human. As to conditions: single drug or combination; data not shown.

As for `COC1=CC(=O)C[C@@H](C)[C@]12Oc1c(Cl)c(OC)cc(OC)c1C2=O` [griseofulvin, (2S,6'R)-7-chloro-2',4,6-trimethoxy-6'-methyl-3H,4'H-spiro [1-benzofuran-2,1'-cyclohex[2]ene]-3,4'-dione], the half-inhibitory concentration (IC50) in data set [1] amounted to 22 µM; in data set [2] it was 41 µM; in data set [3], 18 µM; in data set [4], 22 µM; in data set [5] it was 30 µM; in data set [6], 33 µM. The 50% inhibitory concentration (IC50) in [7] turned out to be 26 µM; in [9], 180 µM; in [12] it was 80 µM. The “viability of myeloma cell lines in vitro” value in data set [1] is “significantly decreased the viability”. In addition, the “growth of primary myeloma cells” value in data set [8] is recorded as “inhibits the growth”. Further, the “viability of lymphoma cell lines in vitro” value in data set [10] is given as “significantly (p<0.05) decreased”. Also, the overall survival time result in data set [11] is given as “significantly (p<0.05) longer”. In data set [11], the “animals in which solid tumor nodules formed” value is recorded as 5 of 6.
Consider `Cc1cc(CC(C)CC(C)(C)C)n(O)c(=O)c1` (stereo not shown) [piroctone olamine], for which the IC50 in data set [1] was found to be 0.6 µM; in data set [2], 0.8 µM; in data set [3], 0.6 µM; in data set [4], 0.7 µM; in data set [5], 0.6 µM; in data set [6] it was 0.6 µM. Further, the IC50 was found to be 0.6 µM in data set [7], 0.6 µM in data set [13], 18 µM in [12] and 0.7 µM in [14]. The “viability of myeloma cell lines in vitro” value in data set [1] was “significantly decreased the viability”. Moreover, the “growth of primary myeloma cells” value in data set [8] is given as “inhibits the growth”. Moreover, in data set [10], the “viability of lymphoma cell lines in vitro” value is recorded as “significantly (p<0.05) decreased”. Besides, the overall survival time result in data set [11] was “significantly (p<0.05) longer”. Also, the “animals in which solid tumor nodules formed” value in data set [11] was 5 of 6. Further, the “effect on normal PBL” value in [12] is “marginal”.
`O=C1CCC(N2C(=O)c3ccccc3C2=O)C(=O)N1` (racemic) [thalidomide, (RS)-2-(2,6-dioxopiperidin-3-yl)-1H-isoindole-1,3(2H)-dione]: the half-maximal inhibitory concentration (IC50) was more than 251 µM in data set [1]; 300 µM in data set [3]; more than 400 µM in data set [4]; more than 400 µM in data set [5]; more than 400 µM in data set [6]; more than 400 µM in data set [7]. In addition, the half-inhibitory concentration (IC50) in data set [9] was more than 400 µM; in data set [12] it was more than 400 µM; in data set [14] it was 53 µM. The “viability of OPM-2, U-266 and RPMI-8226 myeloma cells” value in data set [1] (thalidomide 160µM for U266, 20µM for RPMI, 40µM for OPM, three days) is “significant decrease in viability”. Besides, in data set [15], the “effect on normal PBL” value is on record as “no effect”. For the same compound, in data set [9], the “effect on normal PBMC and PBL” value is given as “no effect”. In data set [10], the “viability of lymphoma cell lines in vitro” value was “no effect”.
Consider `COc1cccc2c1C(=O)c1c(O)c3c(c(O)c1C2=O)C[C@@](O)(C(=O)CO)C[C@@H]3O[C@H]1C[C@H](N)[C@H](O)[C@H](C)O1` [doxorubicin], for which, in data set [16], the “viability of Daudi and Raji cells” value is reported as “significant decrease in viability”.
Take `CC(C)C[C@H](NC(=O)[C@H](Cc1ccccc1)NC(=O)c1cnccn1)B(O)O` [bortezomib]: the “viability of OPM-2 myeloma cells” value in data set [14] (bortezomib alone or in combination, data not shown) is “significant decrease in viability”.
With `Nc1cccc2c1CN(C1CCC(=O)NC1=O)C2=O` (racemic) [lenalidomide, (RS)-3-(4-amino-1-oxo-3H-isoindol-2-yl)piperidine-2,6-dione], the IC50 in [1] was 16.3 µM; in data set [3], 34 µM; in data set [4], more than 1000 µM; in data set [5] it was more than 1000 µM; in [6], more than 1000 µM; in data set [7], 2 µM. For the same compound, the IC50 is more than 400 µM in [9], more than 200 µM in data set [12] and 13 µM in data set [14]. Moreover, the “viability of OPM-2 and RPMI-8226 myeloma cells” value in data set [1] (lenalidomide 12µM for OPM, 80µM for RPMI, three days) is “significant decrease in viability”. In addition, in data set [9], the “effect on normal PBMC and PBL” value is “marginal”. In addition, in [10], the “viability of lymphoma cell lines in vitro” value is on record as “no effect”. In addition, in data set [12], the “effect on normal PBL” value is “marginal”.

What is called IC50 is the concentration needed to halve the response being measured.
